Columns and labels:
Type in all cases: biochemical
GSK-3β (AA 1-420) = target: T1, GSK-3β (AA 1-420) (Homo sapiens, UniProt P49841); assay: Ki determination for the inhibition of GSK-3, standard coupled enzyme system; details: 20 μM ATP, 300 μM peptide, 20 nM GSK-3β, 30° C.; read-out: Ki values for GSK-3
T1 construct: GSK-3β (AA 1-420)
Protocol: Final substrate concentrations in the assay were 20 μM ATP (Sigma Chemicals, St Louis, Mo.) and 300 μM peptide (HSSPHQS(PO3H2)EDEEE, American Peptide, Sunnyvale, Calif.). Reactions were carried out at 30° C. and 20 nM GSK-3β. Final concentrations of the components of the coupled enzyme system were 2.5 mM phosphoenolpyruvate, 300 μM NADH, 30 μg/ml pyruvate kinase and 10 μg/ml lactate dehydrogenase.
An assay stock buffer solution was prepared containing all of the reagents listed above with the exception of ATP and the test compound of interest. The assay stock buffer solution (175 μl) was incubated in a 96 well plate with 5 μl of the test compound of interest at final concentrations spanning 0.002 μM to 30 μM at 30 ° C. for 10 min. […] The reaction was initiated by the addition of 20 μl of ATP (final concentration 20 μM). Rates of reaction were obtained using a Molecular Devices Spectramax plate reader (Sunnyvale, Calif.) over 10 min at 30° C. The Ki values were determined from the rate data as a function of inhibitor concentration.

Aurora-2 = target: T2, Aurora-2 (Homo sapiens, UniProt O14965); assay: Ki determination for the inhibition of Aurora-2, standard coupled enzyme assay; details: 70 nM Aurora-2, 800 μM peptide LRRASLG, 30° C.
T2 sequence (O14965 1-403): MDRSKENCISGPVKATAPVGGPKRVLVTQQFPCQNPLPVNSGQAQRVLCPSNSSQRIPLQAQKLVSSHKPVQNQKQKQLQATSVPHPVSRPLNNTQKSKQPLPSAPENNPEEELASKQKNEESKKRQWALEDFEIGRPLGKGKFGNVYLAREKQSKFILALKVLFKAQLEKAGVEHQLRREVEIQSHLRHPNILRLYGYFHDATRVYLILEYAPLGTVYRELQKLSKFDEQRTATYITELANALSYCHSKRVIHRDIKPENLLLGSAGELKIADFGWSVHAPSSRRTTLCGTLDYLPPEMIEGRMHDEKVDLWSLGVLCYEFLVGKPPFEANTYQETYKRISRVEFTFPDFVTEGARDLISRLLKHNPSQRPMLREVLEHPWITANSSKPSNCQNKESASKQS
Protocol: Compounds were screened in the following manner for their ability to inhibit Aurora-2 using a standard coupled enzyme assay (Fox et al. (1998) Protein Sci. 7, 2249).
(§1) To an assay stock buffer solution containing 0.1M HEPES 7.5, 10 mM MgCl2, 1 mM DTT, 25 mM NaCl, 2.5 mM phosphoenolpyruvate, […], 30 mg/ml pyruvate kinase, 10 mg/ml lactate dehydrogenase, 40 mM ATP, and 800 μM peptide (LRRASLG, American Peptide, Sunnyvale, Calif.) was added a DMSO solution of a compound of the present invention to a final concentration of 30 μM. The resulting mixture was incubated at 30° C. for 10 min. The reaction was initiated by the addition of 10 μL of Aurora-2 stock solution to give a final concentration of 70 nM in the assay. The rates of reaction were obtained by monitoring absorbance at 340 nm over a 5 minute read time at 30° C. using a BioRad Ultramark plate reader (Hercules, Calif.). The Ki values were determined from the rate data as a function of inhibitor concentration.

CDK-2/Cyclin A [1] = target: T3, CDK-2/Cyclin A (Homo sapiens, UniProt P24941); assay: Inhibition of CDK-2, standard coupled enzyme assay; details: for inhibition at 2 µM: 2 μM compound; for inhibition at 10 µM: read-out: CDK-2 % inhibition @ 10 μM, 10 μM compound
CDK-2/Cyclin A [2] = target: T3, CDK-2/Cyclin A; assay: Inhibition of CDK-2, standard coupled enzyme assay; details: 25 nM CDK-2/Cyclin A, 100 μM peptide, 30° C.
Protocol: Compounds were screened in the following manner for their ability to inhibit CDK-2 using a standard coupled enzyme assay (Fox et al (1998) Protein Sci 7, 2249).
as §1, with “[…], […]” for “dehydrogenase, 40”, “and 100” for “and 800”, “peptide ([…],” for “peptide (LRRASLG,”, “of CDK-2/Cyclin A” for “of Aurora-2”, “of 25” for “of 70”, “a 5-minute” for “a 5 minute”

T1 sequence (P49841 whole entry, the tested form may be a part): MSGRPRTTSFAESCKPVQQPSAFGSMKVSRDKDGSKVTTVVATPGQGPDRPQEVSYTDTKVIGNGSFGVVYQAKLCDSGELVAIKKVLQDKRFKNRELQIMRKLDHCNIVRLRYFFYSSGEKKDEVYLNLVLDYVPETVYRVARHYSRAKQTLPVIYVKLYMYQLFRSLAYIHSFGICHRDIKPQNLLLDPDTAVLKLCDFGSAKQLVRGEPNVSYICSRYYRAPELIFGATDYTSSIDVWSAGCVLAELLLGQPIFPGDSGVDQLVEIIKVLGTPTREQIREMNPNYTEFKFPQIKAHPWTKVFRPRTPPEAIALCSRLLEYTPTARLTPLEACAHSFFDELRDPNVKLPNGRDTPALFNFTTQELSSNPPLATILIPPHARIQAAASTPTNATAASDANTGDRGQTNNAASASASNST

Compound	Ki (GSK-3β (AA 1-420))	Ki (Aurora-2)	inhibition at 2 µM (CDK-2/Cyclin A [1])	inhibition at 10 µM (CDK-2/Cyclin A [1])	Ki (CDK-2/Cyclin A [2])
COc1ccc(NN=C2C(=O)NN=C2c2ccc(OC)cc2)cc1 [Compound 46]	< 100 nM	100 to 1000 nM	82%	95%	–
COc1ccc(C2=NNC(=O)C2=NNc2ccc(Cl)cc2)cc1OC [Compound 44]	< 100 nM	–	87%	94%	–
CCOc1ccc(C2=NNC(=O)C2=NNc2ccc(N(CC)CC)cc2)cc1OCC [Compound 114, 5-(3,4-Diethoxy-phenyl)-4-[(4-diethylamino-phenyl)-hydrazono]-2,4-dihydro-pyrazol-3-one]	–	< 100 nM	–	–	1000 to 20000 nM
CCOc1ccc(C2=NNC(=O)C2=NNc2ccc(N3CCOCC3)cc2)cc1OCC [Compound 116, 5-(3,4-Diethoxy-phenyl)-4-[(4-morpholin-4-yl-phenyl)-hydrazono]-2,4-dihydro-pyrazol-3-one]	–	< 100 nM	–	–	1000 to 20000 nM
COc1cc(C2=NNC(=O)C2=NNc2ccc(N3CCOCC3)cc2)ccc1OCc1ccccc1 [Compound 119, 5-(4-Benzyloxy-3-methoxy-phenyl)-4-[(4-morpholin-4-yl-phenyl)-hydrazono]-2,4-dihydro-pyrazol-3-one]	–	< 100 nM	–	–	1000 to 20000 nM
CCN(CCO)c1ccc(NN=C2C(=O)NN=C2c2ccc(OCc3ccccc3)c(OC)c2)cc1 [Compound 118, 5-(4-Benzyloxy-3-methoxy-phenyl)-4-({4-[ethyl-(2-hydroxy-ethyl)-amino]-phenyl}-hydrazono)-2,4-dihydro-pyrazol-3-one]	–	< 100 nM	–	–	1000 to 20000 nM
CCN(CC)c1ccc(NN=C2C(=O)NN=C2c2ccc(OCc3ccccc3)c(OC)c2)cc1 [Compound 117, 5-(4-Benzyloxy-3-methoxy-phenyl)-4-[(4-diethylamino-phenyl)-hydrazono]-2,4-dihydro-pyrazol-3-one]	–	100 to 1000 nM	–	–	1000 to 20000 nM

Source: patent US6916798B2, “Inhibitors of GSK-3 and uses thereof” (Vertex Pharmaceuticals Incorporated, priority 2001, dated 2005)
